# Measurements from patent US8921376B2, “Pyrrolopyridines useful as inhibitors of protein kinase” (Vertex Pharmaceuticals Incorporated, priority 2005, dated 2014).
# What was measured:
# Assay type in all cases: biochemical
# JAK3 = molecular target: T1, JAK3 (Homo sapiens, UniProt P52333); assay: JAK3 inhibition assay (33P incorporation into poly(Glu)4Tyr)
# T1 sequence (P52333 1-1124): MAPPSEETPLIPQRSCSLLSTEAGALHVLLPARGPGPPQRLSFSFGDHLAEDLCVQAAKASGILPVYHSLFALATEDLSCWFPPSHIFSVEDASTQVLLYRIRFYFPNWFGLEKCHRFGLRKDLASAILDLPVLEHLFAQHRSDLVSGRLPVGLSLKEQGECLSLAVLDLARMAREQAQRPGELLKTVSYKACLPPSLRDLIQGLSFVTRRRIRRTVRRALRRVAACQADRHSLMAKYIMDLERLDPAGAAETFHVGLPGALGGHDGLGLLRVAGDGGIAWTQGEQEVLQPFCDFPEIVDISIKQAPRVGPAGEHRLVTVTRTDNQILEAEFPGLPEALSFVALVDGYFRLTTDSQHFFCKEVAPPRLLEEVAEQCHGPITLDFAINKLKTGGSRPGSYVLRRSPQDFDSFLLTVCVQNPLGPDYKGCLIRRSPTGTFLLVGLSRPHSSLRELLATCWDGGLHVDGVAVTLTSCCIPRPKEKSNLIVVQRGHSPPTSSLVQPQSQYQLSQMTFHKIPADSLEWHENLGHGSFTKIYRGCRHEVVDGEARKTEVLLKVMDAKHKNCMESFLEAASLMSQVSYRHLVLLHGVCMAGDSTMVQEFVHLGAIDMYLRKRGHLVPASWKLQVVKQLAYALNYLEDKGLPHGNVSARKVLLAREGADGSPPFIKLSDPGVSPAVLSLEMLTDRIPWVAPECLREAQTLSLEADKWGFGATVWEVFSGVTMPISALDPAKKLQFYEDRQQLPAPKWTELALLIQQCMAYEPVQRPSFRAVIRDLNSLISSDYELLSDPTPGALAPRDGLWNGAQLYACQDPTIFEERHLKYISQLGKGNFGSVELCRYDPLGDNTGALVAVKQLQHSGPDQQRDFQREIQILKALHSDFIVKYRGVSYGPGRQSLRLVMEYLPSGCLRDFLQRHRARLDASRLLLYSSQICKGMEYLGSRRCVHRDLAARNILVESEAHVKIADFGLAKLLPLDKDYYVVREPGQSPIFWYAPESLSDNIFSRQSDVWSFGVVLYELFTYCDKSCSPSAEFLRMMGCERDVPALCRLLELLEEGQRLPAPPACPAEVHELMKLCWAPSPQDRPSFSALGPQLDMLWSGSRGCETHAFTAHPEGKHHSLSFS
# Summary of the method: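 After TCA quench and filter harvest, scintillation counting of 33P measured phosphorylation of poly(Glu)4Tyr (1 μM) by 1 nM JAK3. The 20-min, 25° C. reaction contained 5 μM ATP (200 μCi/μmole) in pH 7.4 HEPES buffer with 10 mM MgCl2.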
# ROCK I = ROCK I (Homo sapiens, UniProt Q13464); assay: ROCK-I inhibition assay (radioactive enzyme assay, MBP substrate)
# Sequence of ROCK I (Q13464 whole entry): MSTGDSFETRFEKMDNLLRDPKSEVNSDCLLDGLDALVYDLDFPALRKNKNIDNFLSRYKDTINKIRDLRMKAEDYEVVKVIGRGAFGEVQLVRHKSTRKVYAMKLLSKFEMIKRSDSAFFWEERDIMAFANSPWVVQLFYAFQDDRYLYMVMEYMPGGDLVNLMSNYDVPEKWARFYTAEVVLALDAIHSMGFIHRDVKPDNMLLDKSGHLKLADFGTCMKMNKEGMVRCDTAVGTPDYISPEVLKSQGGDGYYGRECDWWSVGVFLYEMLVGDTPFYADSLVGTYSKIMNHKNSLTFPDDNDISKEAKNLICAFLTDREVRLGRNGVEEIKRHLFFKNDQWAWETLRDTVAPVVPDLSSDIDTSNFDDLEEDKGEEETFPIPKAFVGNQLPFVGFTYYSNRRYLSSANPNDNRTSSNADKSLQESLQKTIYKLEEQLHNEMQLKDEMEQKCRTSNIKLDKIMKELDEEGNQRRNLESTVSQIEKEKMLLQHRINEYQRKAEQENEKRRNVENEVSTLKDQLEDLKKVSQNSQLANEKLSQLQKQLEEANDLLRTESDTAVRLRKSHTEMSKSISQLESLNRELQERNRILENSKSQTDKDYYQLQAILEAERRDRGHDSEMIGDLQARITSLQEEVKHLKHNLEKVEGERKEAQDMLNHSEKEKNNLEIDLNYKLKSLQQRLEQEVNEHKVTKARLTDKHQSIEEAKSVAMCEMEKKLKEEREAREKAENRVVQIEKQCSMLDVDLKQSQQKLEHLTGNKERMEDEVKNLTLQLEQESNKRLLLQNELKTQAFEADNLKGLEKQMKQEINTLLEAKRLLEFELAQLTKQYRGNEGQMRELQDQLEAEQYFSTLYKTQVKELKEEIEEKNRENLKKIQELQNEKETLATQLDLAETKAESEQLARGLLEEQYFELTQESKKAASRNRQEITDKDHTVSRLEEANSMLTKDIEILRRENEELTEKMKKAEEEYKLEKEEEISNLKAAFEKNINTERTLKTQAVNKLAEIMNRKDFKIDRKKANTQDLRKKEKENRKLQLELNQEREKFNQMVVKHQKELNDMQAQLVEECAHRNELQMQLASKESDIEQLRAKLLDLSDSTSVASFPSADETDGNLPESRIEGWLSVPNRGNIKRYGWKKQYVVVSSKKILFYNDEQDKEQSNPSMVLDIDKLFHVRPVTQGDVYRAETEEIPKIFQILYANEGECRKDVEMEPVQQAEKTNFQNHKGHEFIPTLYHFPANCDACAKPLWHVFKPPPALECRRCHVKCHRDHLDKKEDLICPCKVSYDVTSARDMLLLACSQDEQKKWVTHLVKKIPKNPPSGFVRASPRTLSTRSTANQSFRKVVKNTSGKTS
# Summary of the method: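 Human ROCK at 5 nM phosphorylated 27 μM myelin basic protein with 13 μM [γ-33P]ATP (final) in HEPES pH 7.5, MgCl2, NaCl, DTT and 1.5% DMSO. Reactions ran 2 h at room temperature before TCA quench and filter-plate scintillation counting. After background subtraction, data were fit to give Ki(app).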
# JAK2 = JAK2 (Homo sapiens, UniProt O60674); assay: JAK2 inhibition assay (as Example 3 with JAK-2 enzyme)
# Sequence of JAK2 (O60674 whole entry): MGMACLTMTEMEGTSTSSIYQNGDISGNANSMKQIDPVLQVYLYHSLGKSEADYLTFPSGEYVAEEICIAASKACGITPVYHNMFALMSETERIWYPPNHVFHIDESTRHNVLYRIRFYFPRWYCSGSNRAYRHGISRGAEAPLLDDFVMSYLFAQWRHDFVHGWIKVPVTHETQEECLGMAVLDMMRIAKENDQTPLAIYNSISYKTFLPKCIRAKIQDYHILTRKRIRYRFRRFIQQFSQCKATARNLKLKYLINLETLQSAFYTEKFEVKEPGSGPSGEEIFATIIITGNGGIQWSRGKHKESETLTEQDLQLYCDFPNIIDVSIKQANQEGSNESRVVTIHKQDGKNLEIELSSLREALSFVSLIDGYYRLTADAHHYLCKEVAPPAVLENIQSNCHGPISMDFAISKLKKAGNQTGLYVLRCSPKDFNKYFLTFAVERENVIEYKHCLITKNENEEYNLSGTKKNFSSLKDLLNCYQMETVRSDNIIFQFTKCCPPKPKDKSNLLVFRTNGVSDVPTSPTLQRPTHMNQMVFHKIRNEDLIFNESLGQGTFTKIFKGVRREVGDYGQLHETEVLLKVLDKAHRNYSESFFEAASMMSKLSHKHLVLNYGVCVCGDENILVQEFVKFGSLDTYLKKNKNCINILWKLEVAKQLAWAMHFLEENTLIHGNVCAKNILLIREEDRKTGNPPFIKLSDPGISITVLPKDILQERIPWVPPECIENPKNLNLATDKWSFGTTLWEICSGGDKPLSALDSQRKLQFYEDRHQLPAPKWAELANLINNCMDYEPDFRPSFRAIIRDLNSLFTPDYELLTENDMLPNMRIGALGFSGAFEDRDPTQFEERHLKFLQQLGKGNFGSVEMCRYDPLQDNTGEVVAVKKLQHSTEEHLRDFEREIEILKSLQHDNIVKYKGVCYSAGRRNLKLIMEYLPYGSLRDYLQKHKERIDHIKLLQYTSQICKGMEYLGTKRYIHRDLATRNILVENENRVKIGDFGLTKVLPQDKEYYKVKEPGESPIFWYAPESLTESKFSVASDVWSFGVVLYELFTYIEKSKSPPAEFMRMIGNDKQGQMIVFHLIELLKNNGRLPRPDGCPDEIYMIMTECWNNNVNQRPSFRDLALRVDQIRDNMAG
# Summary of the method: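 In HEPES pH 7.4 buffer with 10 mM MgCl2, 1 mM DTT, 25 mM NaCl and 0.01% BSA, JAK2 enzyme phosphorylated poly(Glu)4Tyr (final 15 μM) using 33P-ATP (final 12 μM) for 20 min at room temperature (25 °C). Reactions stopped with TCA; incorporated 33P measured by scintillation after filtration.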
# [1] = Table 6, enzyme inhibition data (Ki)
# [2] = enzyme inhibition, Ki(app), Table 5
SMILES,Ki (JAK3; [1]) [nM],Ki (ROCK I; [1]) [nM],Ki (JAK2; [1]) [nM],"Ki (JAK3; enzyme inhibition, Table 5) [nM]",Ki (ROCK I; [2]) [nM],"Ki (JAK2; enzyme inhibition, Table 5) [nM]"
O=C(c1cc(-c2ccnc3[nH]ccc23)c[nH]1)N1CCCC(O)C1 (stereo not drawn) [compound 372],500 to 5000,500 to 5000,500 to 5000,–,–,–
CCCNC(=O)c1ccccc1-c1ccnc2[nH]ccc12 [compound 258],> 5000,> 4000,> 5000,–,–,–
CCCCOc1ccccc1-c1ccnc2[nH]ccc12 [compound 241],> 5000,> 4000,> 5000,–,–,–
Oc1ccccc1-c1ccnc2[nH]ccc12 [compound 248],500 to 5000,500 to 5000,500 to 5000,–,–,–
"CC(C)C[C@@H](CO)Nc1cccc(-c2ccnc3[nH]ccc23)n1 [compound 59, (S)-2-(6-(1H-Pyrrolo[2,3-b]pyridin-4-yl)pyridin-2-ylamino)-4-methylpentan-1-ol]",–,–,–,> 5000,500 to 5000,> 5000
Cc1cc(F)ccc1-c1ccnc2[nH]ccc12 [compound 243],500 to 5000,500 to 5000,> 5000,–,–,–
"c1cc(CN2CCCCC2)cc(-c2ccnc3[nH]ccc23)c1 [compound 87, 4-(3-Piperidin-1-ylmethyl-phenyl)-1H-pyrrolo[2,3-b]pyridine]",–,–,–,500 to 5000,500 to 5000,500 to 5000
"C1=C(c2ccnc3[nH]ccc23)CCCC1 [compound 30, 4-Cyclohexenyl-1H-pyrrolo[2,3b]pyridine]",–,–,–,< 500,< 500,< 500
CC(C)(Nc1nc(-c2ccnc3[nH]ccc23)nc2ccccc12)C(=O)NCC(F)(F)F [compound 132],–,–,–,500 to 5000,500 to 5000,> 5000
Cc1ccc(F)c(-c2ccnc3[nH]ccc23)c1Cl [compound 244],500 to 5000,500 to 5000,> 5000,–,–,–
"CN1CCCC1CCNc1cccc(-c2ccnc3[nH]ccc23)n1 (stereo not drawn) [compound 37, N-(2-(1-Methylpyrrolidin-2-yl)ethyl)-6-(1H-pyrrolo[2,3-b]pyridin-4-yl)pyridin-2-amine]",–,–,–,> 5000,500 to 5000,> 5000
CC1CCCC=C1c1c(Cl)cnc2[nH]ccc12 (stereo not drawn) [compound 68],–,–,–,< 500,500 to 5000,500 to 5000
O=C(c1cc(-c2ccnc3[nH]ccc23)c[nH]1)N1CCC(O)C1 (stereo not drawn) [compound 366],500 to 5000,500 to 5000,500 to 5000,–,–,–
CC(C)[C@@H]1CC[C@@H](C)C[C@H]1Nc1c(Cl)cnc2[nH]ccc12 [compound 151],500 to 5000,> 4000,500 to 5000,–,–,–
c1cnc2c(-c3ccnc4[nH]ccc34)cccc2c1 [compound 227],> 5000,> 4000,> 5000,–,–,–
"CCC(C)CNc1cccc(-c2ccnc3[nH]ccc23)n1 (stereo not drawn) [compound 72, N-(2-Methylbutyl)-6-(1H-pyrrolo[2,3-b]pyridin-4-yl)pyridin-2-amine]",–,–,–,500 to 5000,500 to 5000,< 500
C=C(c1c(Cl)cnc2[nH]ccc12)C1CCCC1 [compound 67],–,–,–,< 500,500 to 5000,< 500
"Clc1ccccc1CNc1cccc(-c2ccnc3[nH]ccc23)n1 [compound 33, N-(2-Chlorobenzyl)-6-(1H-pyrrolo[2,3-b]pyridin-4-yl)pyridin-2-amine]",–,–,–,500 to 5000,500 to 5000,500 to 5000
Cc1csc(-c2c(Cl)cnc3[nH]ccc23)c1 [compound 144],< 500,500 to 5000,< 500,–,–,–
"Fc1cccc(-c2ccnc3[nH]ccc23)n1 [compound 50, 4-(6-fluoropyridin-2-yl)-1H-pyrrolo[2,3-b]pyridine]",–,–,–,500 to 5000,500 to 5000,500 to 5000
"CN(Cc1cccnc1)c1cccc(-c2ccnc3[nH]ccc23)n1 [compound 56, N-Methyl-N-((pyridin-3-yl)methyl)-6-(1H-pyrrolo[2,3-b]pyridin-4-yl)pyridin-2-amine]",–,–,–,500 to 5000,500 to 5000,< 500

# More lines, now with the values ahead:
Ki (JAK3; [1]) [nM],Ki (ROCK I; [1]) [nM],Ki (JAK2; [1]) [nM],"Ki (JAK3; enzyme inhibition, Table 5) [nM]",Ki (ROCK I; [2]) [nM],"Ki (JAK2; enzyme inhibition, Table 5) [nM]",SMILES
< 500,< 500,< 500,–,–,–,CCCCN(CCC#N)C(=O)c1cc(-c2c(F)cnc3[nH]ccc23)c[nH]1 [compound 397]
< 500,< 500,< 500,–,–,–,O=C(CC1CCCC1)Nc1nc(-c2ccnc3[nH]ccc23)cs1 [compound 379]
< 500,< 500,< 500,–,–,–,CCN(Cc1ccccc1)C(=O)c1ccc(-c2ccnc3[nH]ccc23)s1 [compound 304]
< 500,500 to 5000,< 500,–,–,–,COCCN(CCOC)C(=O)c1cc(-c2ccnc3[nH]ccc23)c[nH]1 [compound 308]
< 500,500 to 5000,< 500,–,–,–,O=C(NC1CC1)c1cc(-c2c(Cl)cnc3[nH]ccc23)c[nH]1 [compound 281]
< 500,> 4000,< 500,–,–,–,CS(=O)(=O)N1CC[C@H](Nc2c(Cl)cnc3[nH]ccc23)C1 [compound 185]
< 500,> 4000,500 to 5000,–,–,–,C[C@@H](Nc1nc(-c2ccnc3[nH]ccc23)ncc1F)C(=O)NCC(F)(F)F [compound 201]
< 500,< 500,< 500,–,–,–,CC(C)CN(C)C(=O)c1ccc(-c2ccnc3[nH]ccc23)s1 [compound 326]
< 500,500 to 5000,< 500,–,–,–,CC(C)NC(=O)c1cc(-c2c(Cl)cnc3[nH]ccc23)c[nH]1 [compound 280]
< 500,500 to 5000,< 500,–,–,–,CCN(CCC#N)C(=O)c1cc(-c2c(Cl)cnc3[nH]ccc23)c[nH]1 [compound 329]
< 500,500 to 5000,< 500,–,–,–,CN(Cc1cccnc1)C(=O)c1cc(-c2c(Cl)cnc3[nH]ccc23)c[nH]1 [compound 354]
< 500,< 500,< 500,–,–,–,N#CCCN(Cc1ccccc1)C(=O)c1cc(-c2c(F)cnc3[nH]ccc23)c[nH]1 [compound 394]
< 500,< 500,< 500,–,–,–,CCCN(CC1CC1)C(=O)c1ccc(-c2ccnc3[nH]ccc23)s1 [compound 319]
< 500,< 500,< 500,–,–,–,CCCN(CC(F)(F)F)C(=O)c1csc(-c2ccnc3[nH]ccc23)n1 [compound 407]
< 500,> 4000,< 500,–,–,–,COCCN(CCOC)C(=O)c1cc(-c2c(Cl)cnc3[nH]ccc23)c[nH]1 [compound 339]
< 500,500 to 5000,< 500,–,–,–,CC1CCC(Nc2c(Cl)cnc3[nH]ccc23)CC1 (stereo not drawn) [compound 229]
< 500,< 500,< 500,–,–,–,C[C@@H]1CCC[C@H](C)N1C(=O)c1csc(-c2ccnc3[nH]ccc23)n1 [compound 421]
< 500,< 500,< 500,–,–,–,C=CCN(CC=C)C(=O)c1cc(-c2ccnc3[nH]ccc23)c[nH]1 [compound 298]
< 500,< 500,< 500,–,–,–,CC(C)CC(=O)Nc1nc(-c2ccnc3[nH]ccc23)cs1 [compound 378]
< 500,< 500,< 500,–,–,–,CCCN(CCC#N)C(=O)c1cc(-c2ccnc3[nH]ccc23)c[nH]1 [compound 302]
< 500,500 to 5000,500 to 5000,–,–,–,O=C(NCC(F)(F)F)[C@H](CO)Nc1nc(-c2ccnc3[nH]ccc23)ncc1F [compound 204]
< 500,< 500,< 500,–,–,–,N#CCCN(CC1CC1)C(=O)c1csc(-c2ccnc3[nH]ccc23)n1 [compound 409]
